# Legend:
# AuroraA-TPX2 = target: T1, AuroraA-TPX2 (Homo sapiens, UniProt O14965); assay: AuroraA-TPX2 Homogeneous Time Resolved Fluorescent (HTRF) kinase assay; type: biochemical; conditions: average; ATP about 1 μM; read-out: AurA_IC50_IP (uM Avg)
# T1 construct: 20 μL of AuroraA-TPX2 KD GST; GST
# T1 sequence (O14965 133-383 limits assumed): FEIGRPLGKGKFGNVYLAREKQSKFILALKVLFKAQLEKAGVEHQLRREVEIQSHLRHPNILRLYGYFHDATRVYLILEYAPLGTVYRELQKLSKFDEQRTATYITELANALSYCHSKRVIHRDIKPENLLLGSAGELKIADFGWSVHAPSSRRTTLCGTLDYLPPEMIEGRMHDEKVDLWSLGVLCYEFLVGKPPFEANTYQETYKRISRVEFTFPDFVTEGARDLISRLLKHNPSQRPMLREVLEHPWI
# T1 sequence (Q9ULW0 1-43 partner limits assumed): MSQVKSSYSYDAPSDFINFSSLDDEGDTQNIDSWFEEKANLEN
# Protocol: The Aurora-A HTRF assay begins with Aurora-A in the presence of ATP phosphorylating the biotinylated peptide PLK. The reaction incubates for about 120 min. Detection reagents are added to quench the reaction. These agents stop the reaction by diluting out the enzyme and chelating the metals due to the presence of EDTA. After addition, the assay is incubated overnight to allow the detection reagents to equilibrate.
# The AuroraA HTRF assay comprises 1 μL of compound in 100% DMSO, 20 μL of ATP and biotinylated PLK, and 20 μL of AuroraA-TPX2 KD GST for a final volume of about 41 μL. The final concentration of PLK is about 1 μM. The final concentration of ATP is about 1 μM (Km(app)=1 μM+/−0.1) and the final concentration of AuroraA is about 5 nM. Buffer conditions are as follows: 60 mM HEPES pH 7.5, 25mM NaCl, 10 mM MgCl, 2 mM DTT, 0.05% BSA.
# (§1) The assay is quenched and stopped with 160 μL of detection reagent. Detection reagents are as follows: Buffer made of 50 mM Tris, pH 7.5, 100 mM NaCl, 3 mM EDTA, 0.05% BSA, 0.1% Tween20. Added to this buffer prior to reading is Steptavidin allophycocyanin (SA-APC) at a final conc in the assay of 0.0005 mg/mL, and europilated anti-phosphoPLK Ab (Eu-anti-PLK) at a final conc of 0.02 nM.
# (§2) The assay plate is read in either a Discovery or a RubyStar. The eu-anti-PLK is excited at 320 nm and emits at 615 nm to excite the SA-APC which in turn emits at 655 nm. The ratio of SA-APC at 655 nm (excited due to close proximity to the Eu-anti-PLK because of phosphorylation of the peptide) to free Eu-anti-PLK at 615 nm will give substrate phosphorylation.
# Many of the Examples described herein were tested and found to be active compounds. Table I includes related biological data, which may be interpreted using the activity gauge below.
# AuroraB = target: T2, AuroraB (Homo sapiens, UniProt Q96GD4); assay: AuroraB Homogeneous Time Resolved Fluorescent (HTRF) kinase assay; type: biochemical; conditions: average; ATP 23 μM; read-out: AurB_IC50_IP (uM Avg)
# T2 construct: 20 μL of AuroraB FL His; His
# Protocol: The AuroraB HTRF assay begins with AuroraB in the presence of ATP phosphorylating the biotinylated peptide Histone H3. The reaction incubates for about 90 min. the reaction is quentched by addition of detection reagents, which stop the reaction by diluting out the enzyme and chelating the metals due to the presence of EDTA. After addition, the assay is incubated for about 60 min to allow detection reagents to equilibrate.
# The AuroraB HTRF assay comprises 1 μL of compound in 100% DMSO, 20 μL of ATP and biotinylated Histone H3, and 20 μL of AuroraB FL His for a final volume of 41 μL. The final concentration of Histone H3 is 0.1 μM. The final concentration of ATP is 23 μM (Km(app)=23 μM+/−2.6) and the final concentration of AuroraB is 400 pM. Buffer conditions are as follows: 50 mM HEPES pH 7.5, 5 mM NaCl, 0.5 mM MgCl, 0.5 mM MnCl, 2 mM DTT, 0.05% BSA.
# as §1, with “0.001” for “0.0005”, “anti-phosphoHistoneH3” for “anti-phosphoPLK”, “(Eu-anti-HisH3)” for “(Eu-anti-PLK)”, “0.064” for “0.02”
# as §2, with “eu-anti-HisH3” for “eu-anti-PLK”, “Eu-anti-HisH3” for “Eu-anti-PLK”
# Many of the Examples described herein were tested, and fund to be active compounds. Table I includes related biological data, which may be interpreted using the activity gauge below.
# HeLa cells = assay: HeLa cell 24 hr ploidy assay; type: cell-based; conditions: Homo sapiens, 24 hrs treatment, DNA ploidy, average, read-out: 24h_4N Ploidy EC50_IP (uM Avg)
# Protocol: The purpose of this assay is to evaluate the ability of selected individual compounds to induce Deoxyribonucleic acid (DNA) content (ploidy) in cells through failed cell division. Cell cycle analysis is a rapid and efficient way to evaluate the status of DNA content (ploidy) of a given cell. HeLa cells (1×10^4 HeLa cells/well) in 100 ul of media (MEM+10% FBS) were plated in 96-well plates (Packard View) and cultured for 24 hrs at 37° C. maintained in a 5% CO2 atmosphere. The following day, cells were treated for 24 hrs with inhibitor compounds (10 pt. Dose ranging from 0.0024-1.25 umol/L). The compounds were serially diluted in DMSO (0.25% final concentration). The cells were fixed (3.7% Formaldehyde and 1% glutaraldehyde) and permeabilized (1×PBS with 1% BSA an d0.2% Triton X-100) in preparation for nuclear staining. The well plates were stained for 45 minutes at RT in the dark using Hoechest 33342 nuclear stain at 0.5 ug.ml (Stock of 10 mg/ml, Invitrogen, Calif., Cat #H3570). The nuclear stain was removed by aspiration and the cells were washed with wash buffer. A Cellomics Array Scan Vti plate reader was used to acquire the DNA ploidy data of the cells using Cell Cycle bioapplication. Numbers for each of “valid cell count/well”, “% of 4N cells” and “% of >4Ncells” were calculated with the assistance of an Activity Base 5.1ca software and dose curves were generated using an XLFit software. With XLFit, final EC50 IP and EC50 transit values, as well as the Max and Min, were calculated for each curve.
# T2 sequence (Q96GD4 whole entry): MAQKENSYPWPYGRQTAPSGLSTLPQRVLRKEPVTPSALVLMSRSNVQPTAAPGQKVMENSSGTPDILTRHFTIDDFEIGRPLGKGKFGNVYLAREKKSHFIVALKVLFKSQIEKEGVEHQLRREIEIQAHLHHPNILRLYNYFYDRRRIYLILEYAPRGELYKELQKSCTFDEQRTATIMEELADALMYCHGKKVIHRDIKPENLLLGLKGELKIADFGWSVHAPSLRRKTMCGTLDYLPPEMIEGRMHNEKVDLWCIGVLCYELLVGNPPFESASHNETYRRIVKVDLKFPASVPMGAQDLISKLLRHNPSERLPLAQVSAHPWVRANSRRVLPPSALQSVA
IC50 (AuroraA-TPX2) [µM],IC50 (AuroraB) [µM],EC50 (HeLa cells) [µM],SMILES
0.1 to 0.5,< 0.1,0.1 to 0.5,"Clc1ccc(-c2nnc(Nc3ccc(Oc4ccnc(/C=C/c5ccccc5)n4)cc3)c3ccccc23)cc1 [Example 30, 4-(4-chlorophenyl)-N-(4-((2-((E)-2-phenylethenyl)-4-pyrimidinyl)oxy)phenyl)-1-phthalazinamine]"
0.1 to 0.5,< 0.1,0.1 to 0.5,"O=C(Nc1cc(Oc2ccc(Nc3nnc(-c4ccccc4)c4ccccc34)cc2F)ccn1)N1CCOCC1 [Example 44, N-(4-((2-fluoro-4-((4-phenyl-1-phthalazinyl)amino)phenyl)oxy)-2-pyridinyl)-4-morpholinecarboxamide]"
0.1 to 0.5,< 0.1,< 0.1,"Clc1ccc(-c2nnc(Nc3ccc(Sc4ccnc(/C=C/c5ccccc5)n4)cc3)c3ccccc23)cc1 [Example 35, 4-(4-chlorophenyl)-N-(4-((2-((E)-2-phenylethenyl)-4-pyrimidinyl)sulfanyl)phenyl)-1-phthalazinamine]"
